For assay [1], the system named is HT-29 cells. The experiment in a line: Necrosis assay (TNF-α/Smac mimetic/z-VAD induced necrosis, cell viability by ATP level). Format: cell-based. The method in brief: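 Necrosis induced by 20 ng/ml TNF-α, 100 nM Smac mimetic and […], with compound added concurrently for 24 h. Viability read as ATP luminescence (CellTiter-Glo), normalized to DMSO-treated cells; duplicates.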

Assay [2] concerns the target T1, Recombinant full-length RIPK1 protein with N-terminal GST-tag (hRIP1 kinase) (Homo sapiens, UniProt Q13546).
T1 construct: Recombinant full-length RIPK1 protein with N-terminal GST-tag; GST (N); purchased SignalChem R07-34G
T1 sequence (Q13546 1-671): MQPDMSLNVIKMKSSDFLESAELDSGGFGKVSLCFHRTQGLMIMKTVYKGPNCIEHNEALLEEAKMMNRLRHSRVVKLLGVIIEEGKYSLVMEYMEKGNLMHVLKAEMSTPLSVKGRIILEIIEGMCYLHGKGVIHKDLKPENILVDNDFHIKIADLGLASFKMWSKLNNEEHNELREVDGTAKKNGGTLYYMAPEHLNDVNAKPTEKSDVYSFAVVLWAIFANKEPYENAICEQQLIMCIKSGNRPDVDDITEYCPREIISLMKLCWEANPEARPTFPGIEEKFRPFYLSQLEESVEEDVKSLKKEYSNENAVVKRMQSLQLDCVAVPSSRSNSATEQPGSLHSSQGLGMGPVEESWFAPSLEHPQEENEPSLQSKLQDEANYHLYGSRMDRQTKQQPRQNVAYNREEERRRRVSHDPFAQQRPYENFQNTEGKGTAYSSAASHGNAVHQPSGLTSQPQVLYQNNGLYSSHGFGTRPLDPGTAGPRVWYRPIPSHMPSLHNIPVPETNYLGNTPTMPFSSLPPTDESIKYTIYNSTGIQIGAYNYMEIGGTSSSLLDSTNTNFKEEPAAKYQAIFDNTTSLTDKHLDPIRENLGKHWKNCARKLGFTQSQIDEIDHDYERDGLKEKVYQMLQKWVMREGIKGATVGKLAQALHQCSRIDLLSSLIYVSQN
The experiment in a line: Kinase assay of RIPK1 (ADP-Glo). Format: biochemical. The note with it: for IC50: RIPK1 161 nM, ATP 50 uM, MBP 20 uM, 90 min. As for the experimental part: Recombinant full-length RIPK1 protein with N-terminal GST-tag (Cat # R07-34G) was purchased from SignalChem. The ADP-Glo™ kinase assay kit (Cat # V9102) was from Promega. MBP (cat # M2295) protein and all the other chemicals were from Sigma. The 384-well assay plates (Cat #3674, white, opaque) were purchased from Corning.
Kinase activity assay and data analysis: The RIPK1 kinase assay was performed in white 384-well plate. The assay buffer contained 25 mM HEPES (pH7.2), 20 mM MgCl2, 12.5 mM MnCl2, 5 mM EGTA, 2 mM EDTA, 12.5 mM β-glycerol phosphate and 2 mM DTT. RIPK1 was first incubated with compounds or DMSO control for 15 min, then ATP/MBP substrate mixture was added to initiate the reaction. The final concentration of RIPK1 was 161 nM, while the final concentration of ATP was 50 uM, and MBP 20 uM. After 90 min reaction at room temperature, the ADP-Glo reagent and detection solution were added following the technical manual of ADP-Glo™ kinase assay kit (Promega). The luminescence was measured on PerkinElmer Enspire. The data was analyzed using Graphpad Prism (GraphPad Software; www.graphpad.com). The curves were fitted using a non-linear regression model with a sigmoidal dose response.
On the technique in general: ADP-Glo turns the ADP formed in a reaction into a luminescent signal.

[3] abbreviates: HT-29, TNF-α + Smac mimetic + z-VAD, 24 hrs, ATP level, values given as ranges in nM, read-out: EC50 (inhibition of necrosis in HT-29 cells).
[4] abbreviates: Homo sapiens, HT-29, 24 h, HT-29, TNF-α + Smac mimetic + z-VAD, 24 hrs, ATP level, values given as ranges in uM, read-out: EC50 (inhibition of necrosis in HT-29 cells).
The mark [5] stands for this setting: Homo sapiens, HT-29, cell necrosis assay, exemplary data table, read-out: Cell viability assay, EC50.

This is an account of results in US10682319B2, “Necrosis inhibitors” (National Institute of Biological Sciences, Beijing, priority 2014, dated 2020).

Read-outs that look alike come from different tables or passages of the source.

As usually defined, the EC50 is the midpoint of the concentration-response curve. By IC50 is commonly meant the point on the concentration scale where inhibition reaches its midpoint. For `CCC(C)(C)C(=O)N(C)Cc1cc(F)cc(F)c1F` [Compound 75, N,2,2-trimethyl-N-(2,3,5-trifluorobenzyl)butanamide], the EC50 in assay [1] (setting [3]) lay in the range of 1 to 1000 nM. The IC50 in assay [2] came out at 0.033 µM. For `CCC(C)(C)C(=O)N(C)Cc1cccc(F)c1` [Compound 16, N-(3-fluorobenzyl)-N,2,2-trimethylbutanamide], the half-maximal effective concentration (EC50) in assay [1] (setting [3]) lay in the range of 1 to 1000 nM. In assay [2], the concentration for half-maximal inhibition (IC50) worked out at 0.052 µM. As for `CN(Cc1cc(F)c(F)c(F)c1)C(=O)C1CCCC1` [Compound 85, N-methyl-N-(3,4,5-trifluorobenzyl)cyclopentanecarboxamide], the EC50 in assay [1] (setting [4]) lay within 1000 to 100000 nM. On to `CCC(C)(C)C(=O)N(O)Cc1ccccc1` [Compound 92, N-benzyl-N-hydroxy-2,2-dimethylbutanamide], for which the EC50 in assay [1] (setting [3]) was 1 to 1000 nM; in assay [1] (setting [5]), 28.4 nM. In addition, the IC50 in assay [2] was 0.0132 µM.

Regarding `CCC(C)(C)C(=O)N(C)Cc1ccn(C)n1` [Compound 45, N,2,2-trimethyl-N-((1-methyl-1H-pyrazol-3-yl)methyl)butanamide], the EC50 in assay [1] (setting [4]) is 1000 to 100000 nM. Still for that read-out and setting: to `CN(Cc1cc(F)c(F)c(F)c1)C(=O)C(C)(C)CO` [Compound 66, 3-hydroxy-N,2,2-trimethyl-N-(3,4,5-trifluorobenzyl)propanamide] belongs 1000 to 100000 nM; to `CCC(C)(C)C(=O)N(C)Cc1ccc(OC)nc1` [Compound 38, N-((6-methoxypyridin-3-yl)methyl)-N,2,2-trimethylbutanamide], 1000 to 100000 nM; to `CCC(C)(C)C(=O)N[C@@H](CC(=O)N1CCCCC1)c1ccccc1` [Compound 105, (S)-2,2-dimethyl-N-(3-oxo-1-phenyl-3-(piperidin-1-yl)propyl)butanamide], 1000 to 100000 nM.

With `CN(Cc1cc(F)cc(F)c1F)C(=O)C1(C)CC1` [Compound 80, N,1-dimethyl-N-(2,3,5-trifluorobenzyl)cyclopropanecarboxamide], the EC50 in assay [1] (setting [4]) was 1000 to 100000 nM. On the same count and under the same terms, to `CC(F)(F)C(C)(C)C(=O)N(O)Cc1ccc(F)cc1F` [Compound S10] belongs 1000 to 100000 nM; to `CCC(C)(C)C(=O)N(CCC(C)=O)Cc1ccccc1F` [Compound 12, N-(2-fluorobenzyl)-2,2-dimethyl-N-(3-oxobutyl)butanamide], 1000 to 10000 nM; to `CN(Cc1cc(F)c(F)c(F)c1)C(=O)c1c(Cl)cccc1Cl` [Compound 129, 2,6-dichloro-N-methyl-N-(3,4,5-trifluorobenzyl)benzamide], 1000 to 100000 nM.

As to `CCC(C)(C)C(=O)N(C)Cc1c(F)ccc(C)c1F` [Compound 50, N-(2,6-difluoro-3-methylbenzyl)-N,2,2-trimethylbutanamide], the EC50 in assay [1] (setting [4]) fell in the range of 1000 to 10000 nM. Turning to `CN(Cc1cc(F)cc(F)c1F)C(=O)C1(C)CCCCC1` [Compound 65, N,1-dimethyl-N-(2,3,5-trifluorobenzyl)cyclohexanecarboxamide], the EC50 in assay [1] (setting [3]) was in the range of 1 to 1000 nM.

For the compound `CCC(C)(C)C(=O)N[C@@H](CC(=O)OC)c1ccccc1` [Compound 100, (S)-methyl 3-(2,2-dimethylbutanamido)-3-phenylpropanoate], the EC50 in assay [1] (setting [4]) is 1000 to 100000 nM. On the same count and under the same terms, the same measure for `CCC(C)(C)C(=O)N(Cc1ccccc1)OC` [Compound 151]: 1000 to 100000 nM.

Consider `CCC(C)(C)C(=O)N(O)Cc1cc(F)c(F)c(F)c1` [Compound 99, N-hydroxy-2,2-dimethyl-N-(3,4,5-trifluorobenzyl)butanamide], for which the EC50 is 1 to 1000 nM in assay [1] (setting [3]) and 45.7 nM in assay [1] (setting [5]). The IC50 in assay [2] came out at 0.0296 µM. Consider `CCC(C)(C)C(=O)N(O)CC1CCCC1` [Compound 139], for which the EC50 in assay [1] (setting [4]) was 1000 to 100000 nM. On the same count and under the same terms, to `COCC(C)(C)C(=O)N(C)Cc1cc(F)c(F)c(F)c1` [Compound 71, 3-methoxy-N,2,2-trimethyl-N-(3,4,5-trifluorobenzyl)propanamide] belongs 1000 to 100000 nM.

Take `CCC(C)(C)C(=O)N(CCO)Cc1cc(F)cc(F)c1F` [Compound 77, N-(2-hydroxyethyl)-2,2-dimethyl-N-(2,3,5-trifluorobenzyl)butanamide]: the EC50 in assay [1] (setting [3]) was 1 to 1000 nM. A word on the inhibition: it is the change of the read-out against control, counted positive when it falls. Turning to `CCC(C)(C)C(=O)N(C)Cc1ccccc1Cl` [Compound 14, N-(2-chlorobenzyl)-N,2,2-trimethylbutanamide], the values for the 50% effective concentration (EC50) in assay [1] (setting [4]) and in assay [1] (setting [5]) were 1000 to 10000 nM and 3280 nM, respectively. Also, in assay [2] (at 2uM compound), the inhibition at 2 µM came to 66%. With `CNCC(C)(C)C(=O)N(C)Cc1cc(F)c(F)c(F)c1` [Compound 68, N,2,2-trimethyl-3-(methylamino)-N-(3,4,5-trifluorobenzyl) propanamide], the EC50 in assay [1] (setting [4]) is 1000 to 100000 nM. For `CCC(C)(C)C(=O)NC(CO)c1ccccc1` (stereo not drawn) [Compound 110, N-(2-hydroxy-1-phenylethyl)-2,2-dimethylbutanamide], the half-maximal effective concentration (EC50) in assay [1] (setting [4]) lay within 1000 to 100000 nM. Still for that read-out and setting: the same measure for `CCC(C)(C)C(=O)N(C)Cc1c(F)c(F)cc(F)c1F` [Compound 51, N,2,2-trimethyl-N-(2,3,5,6-tetrafluorobenzyl)butanamide]: 1000 to 10000 nM. On the same count and under the same terms, the same measure for `CN(Cc1ccccc1F)C(=O)c1ccccc1` [Compound 61, N-(2-fluorobenzyl)-N-methylbenzamide]: 1000 to 100000 nM; for `CCC(C)(C)C(=O)N[C@@H](C(=O)N(C)C)c1ccccc1` [Compound 123, (R)—N-(2-(dimethylamino)-2-oxo-1-phenylethyl)-2,2-dimethylbutanamide]: 1000 to 100000 nM; for `CCC(C)(C)C(=O)N(C)C1(c2ccccc2)CC1` [Compound 55, N,2,2-trimethyl-N-(1-phenylcyclopropyl)butanamide]: 1000 to 100000 nM.

With `C=CC(C)(C)C(=O)N(C)Cc1ccccc1F` [Compound 147], the concentration giving a half-maximal response (EC50) in assay [1] (setting [4]) lay in the range of 1000 to 100000 nM. Same read-out and setting: the same measure for `CN(Cc1cc(F)cc(F)c1F)C(=O)C1(C(F)(F)F)CCCC1` [Compound 86, N-methyl-N-(2,3,5-trifluorobenzyl)-1-(trifluoromethyl)cyclopentanecarboxamide]: 1000 to 100000 nM. Turning to `CCC(C)(C)C(=O)N(O)Cc1ccc(F)cc1F` [Compound 96, N-(2,4-difluorobenzyl)-N-hydroxy-2,2-dimethylbutanamide], in assay [1] (setting [3]), the EC50 was 1 to 1000 nM. Take `CCC(C)(C)C(=O)N[C@@H](C(=O)NCCOc1ccccc1)c1ccccc1` [Compound 127, (R)-2,2-dimethyl-N-(2-oxo-2-((2-phenoxyethyl)amino)-1-phenylethyl)butanamide]: the EC50 in assay [1] (setting [4]) was 1000 to 100000 nM. `CCC(C)(C)C(=O)N(O)Cc1cccn1C` [Compound 143]: the 50% effective concentration (EC50) in assay [1] (setting [4]) lay in the range of 1000 to 100000 nM. The same measure, in the same setting: to `CCC(C)(C)C(=O)N(Cc1cc(F)c(F)cc1F)OC` [Compound 133] belongs 1000 to 100000 nM; to `CCC(C)(CC)C(=O)NCc1cc(F)cc(F)c1F` [Compound 73, 2-ethyl-2-methyl-N-(2,3,5-trifluorobenzyl)butanamide], 1000 to 10000 nM.
